The conditions of assay [1]: literature test; cited from earlier work.
For assay [2] the following is noted: literature test; cited from earlier work. The source holds these as a separate data set.
The target of another assay is T1, MAO A (Rattus norvegicus, UniProt P21396).
T1 construct: determined in dilute rat brain homogenate; from tissue; host or cells: rat brain homogenate
T1 sequence (P21396 1-526): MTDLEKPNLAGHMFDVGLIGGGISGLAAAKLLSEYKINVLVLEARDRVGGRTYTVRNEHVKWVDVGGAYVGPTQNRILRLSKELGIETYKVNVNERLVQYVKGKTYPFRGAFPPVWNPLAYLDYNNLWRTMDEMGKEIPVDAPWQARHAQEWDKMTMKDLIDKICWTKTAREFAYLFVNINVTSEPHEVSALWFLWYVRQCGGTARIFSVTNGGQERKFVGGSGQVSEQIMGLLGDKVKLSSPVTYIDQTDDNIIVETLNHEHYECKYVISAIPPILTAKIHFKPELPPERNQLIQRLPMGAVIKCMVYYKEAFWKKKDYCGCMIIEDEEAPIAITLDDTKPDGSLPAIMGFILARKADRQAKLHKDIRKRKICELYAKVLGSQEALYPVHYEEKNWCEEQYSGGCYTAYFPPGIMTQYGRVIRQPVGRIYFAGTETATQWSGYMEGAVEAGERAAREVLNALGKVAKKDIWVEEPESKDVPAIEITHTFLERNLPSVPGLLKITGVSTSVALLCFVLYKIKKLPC
The assay is described as follows: MAO A inhibition in dilute rat brain homogenate (14C substrate, 20 min at 37° C). The assay is classed as biochemical. Particulars: 14C-phenylethylamine or 14C-tryptamine 0.4 μmol/l, logit-log regression. Here is the method: (§1) The MAO-inhibiting activity of the novel compounds can be determined using standard methods. […] The mixture was incubated for 20 minutes at 37° C.
(§2) The blank value was determined in similar mixtures with an incubation time of t=0 min.
(§3) From the inhibitory values determined at the various inhibitor concentrations against a control, the mean inhibitory concentration (IC50) was calculated by linear regression following logit-log transformation.

The target of another assay is T2, MAO B (Rattus norvegicus, UniProt P19643).
T2 construct: determined in dilute rat brain homogenate; from tissue; host or cells: rat brain homogenate
T2 sequence (P19643 1-520): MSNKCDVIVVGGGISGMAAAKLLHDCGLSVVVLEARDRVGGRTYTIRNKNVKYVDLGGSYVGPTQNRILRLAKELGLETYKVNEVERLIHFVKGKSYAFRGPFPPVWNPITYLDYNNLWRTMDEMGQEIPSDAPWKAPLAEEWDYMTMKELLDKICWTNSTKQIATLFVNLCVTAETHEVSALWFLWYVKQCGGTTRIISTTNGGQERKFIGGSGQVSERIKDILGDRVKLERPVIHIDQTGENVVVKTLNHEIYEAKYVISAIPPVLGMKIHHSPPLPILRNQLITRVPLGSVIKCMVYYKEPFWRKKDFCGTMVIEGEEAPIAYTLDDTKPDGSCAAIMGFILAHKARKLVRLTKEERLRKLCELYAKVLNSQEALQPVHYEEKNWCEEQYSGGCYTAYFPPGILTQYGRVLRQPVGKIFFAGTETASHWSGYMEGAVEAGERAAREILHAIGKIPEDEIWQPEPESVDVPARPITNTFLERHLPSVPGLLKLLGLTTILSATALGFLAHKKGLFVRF
The assay is described as follows: MAO B inhibition in dilute rat brain homogenate (14C substrate, 20 min at 37° C). The assay is classed as biochemical. Particulars: for IC50 ratio MAO A / MAO B: quotient of IC50 MAO A and IC50 MAO B (selectivity for MAO B), 20 min; for IC50: rat brain homogenate, 14C-phenylethylamine or 14C-tryptamine 0.4 μmol/l, 20 minutes at 37° C, logit-log regression. Here is the method:
as §1, §2, §3

Structures can show the parent of a compound that is named as a salt.

This is an account of results in patent US5073563A, “Alkoxycoumarins substituted by a heterocyclic radical, their preparation and therapeutic agents containing these compounds” (BASF Aktiengesellschaft, priority 1988, dated 1991).

With `Cc1cc(=O)oc2cc(OCc3cc(-c4ccccc4)no3)ccc12` [4-methyl-7-(3-phenylisoxazol-5-yl-methoxy)-coumarin], the fungicidal action result in assay [1] is “little or no success”. Also, in assay [2], the bacteriostatic action entry was “little or no success”.

On to `Cc1c(C)c2ccc(OCc3cc(C4CC4)n(C)n3)cc2oc1=O` [Example 61, 7-(5-Cyclopropyl-1-methylpyrazol-3-yl)-methoxy-3,4-dimethylcoumarin], for which the IC50 at MAO A is above 10000 nM. Also, on MAO B, the “IC50 ratio MAO A / MAO B” value is above 1100 and the IC50 amounted to 1.9 nM.

As to `CCOc1nnc(COc2ccc3c(C)c(C)c(=O)oc3c2)s1` [Example 62, 7-(2-Ethoxy-1,3,4-thiadiazol-5-yl)-methoxy-3,4-dimethylcoumarin], the IC50 at MAO A was above 10000 nM; against MAO B, 7.5 nM. In addition, the “IC50 ratio MAO A / MAO B” value on MAO B is on record as above 1300.

For the compound `Cc1nnc(COc2cc3oc(=O)c(C)c(C)c3cc2Br)s1` [Example 67, 6-Bromo-3,4-dimethyl-7-(2methyl-1,3,4-thiadiazol-5-yl)-methoxycoumarin], the IC50 at MAO A was above 10000 nM. On MAO B, the “IC50 ratio MAO A / MAO B” value was above 9100 and the IC50 is 1.1 nM.

At MAO A, `Cc1c(C)c2ccc(OCc3cc(C4CCC4)no3)cc2oc1=O` [Example 68, 7-(3-Cyclobutylisoxazol-5-yl)-methoxy-3,4-dimethylcoumarin] returned an IC50 above 10000 nM. Moreover, at MAO B, the “IC50 ratio MAO A / MAO B” value was above 13000 and the IC50 came to 0.77 nM.

For the compound `Cc1c(C)c2ccc(OCc3ncnn3C(C)C)cc2oc1=O` [Example 70, 7-(1-Isopropyl-1,2,4-triazol-5-yl)-methoxy-3,4-dimethylcoumarin hydrochloride], the IC50 against MAO A was above 10000 nM. Moreover, on MAO B, the “IC50 ratio MAO A / MAO B” value is given as above 770 and the IC50 came to 13 nM.

Compound `Cc1c(C)c2ccc(OCc3cc(C(C)C)nn3C)cc2oc1=O` [Example 72, 7-(3-Isopropyl-1-methylpyrazol-5-yl)-methoxy-3,4-dimethylcoumarin] yielded a half-maximal inhibitory concentration (IC50) against MAO A of around 10000 nM. At MAO B, the “IC50 ratio MAO A / MAO B” value was ~ 2000 and inhibition was half-maximal at 4.9 nM (IC50).

Take `Cc1c(C)c2ccc(OCc3cc(C)n(C)n3)cc2oc1=O` [Example 73, 3,4-Dimethyl-7-(1,5-dimethylpyrazol-3-yl)-methoxycoumarin]: the IC50 at MAO A is above 10000 nM; against MAO B, 14 nM. Moreover, on MAO B, the “IC50 ratio MAO A / MAO B” value is recorded as above 700.

`Cc1c(C)c2ccc(OCc3csc(Cc4ccccc4)n3)cc2oc1=O` [Example 74, 7-(2-Benzylthiazol-4-yl)-methoxy-3,4-dimethylcoumarin] displayed an IC50 on MAO A of 3200 nM. Besides, on MAO B, the “IC50 ratio MAO A / MAO B” value is recorded as 580 and half-maximal inhibition (IC50) was put at 5.5 nM.

`Cc1c(C)c2ccc(OCc3csc(C(C)C)n3)cc2oc1=O` [Example 75, 7-(2-Isopropylthiazol-4-yl)-methoxy-3,4-dimethylcoumarin]: the IC50 at MAO A was around 10000 nM. The “IC50 ratio MAO A / MAO B” value at MAO B is reported as ~ 7000.

`Cc1c(C)c2ccc(OCc3cc(C4CCCC4)no3)cc2oc1=O` [Example 78, 7-(3-Cyclopentylisoxazol-5-yl)-methoxy-3,4-dimethylcoumarin]: the IC50 against MAO A is above 10000 nM. Moreover, at MAO B, the “IC50 ratio MAO A / MAO B” value is above 7700 and the IC50 came out at 1.3 nM.

The compound `COC(C)c1cc(COc2ccc3c(C)c(C)c(=O)oc3c2)on1` (stereo not shown) [Example 79, 7-[3-(1-Methoxyethyl)-isoxazol-5-yl]-methoxy-3,4-dimethylcoumarin] returned a concentration for half-maximal inhibition (IC50) against MAO A of 2900 nM. On MAO B, the “IC50 ratio MAO A / MAO B” value came out at 2400 and the IC50 was found to be 1.2 nM.

Compound `Cc1c(C)c2ccc(OCc3csc(C4CC4)n3)cc2oc1=O` [Example 80, 7-(2-Cyclopropylthiazol-4-yl)-methoxy-3,4-dimethylcoumarin] showed an IC50 at MAO A of around 10000 nM. Further, at MAO B, the “IC50 ratio MAO A / MAO B” value is ~ 7100 and inhibition was half-maximal at 1.4 nM (IC50).

As to `CCc1cc2c(C)c(C)c(=O)oc2cc1OCc1cc(C(C)C)n(C)n1` [Example 84, 6-Ethyl-7-(5-isopropyl-1-methylpyrazol-3-yl)-methoxy-3,4-dimethylcoumarin], on MAO A, the IC50 is above 10000 nM. On MAO B, the “IC50 ratio MAO A / MAO B” value is above 1100 and the IC50 turned out to be 9.1 nM.

Regarding `CCc1cc2c(C)c(C)c(=O)oc2cc1OCc1nnc(C)s1` [Example 85, 6-Ethyl-3,4-dimethyl-7-(2-methyl-1,3,4-thiadiazol-5-yl)-methoxycoumarin], the IC50 at MAO A is above 10000 nM. Also, on MAO B, the “IC50 ratio MAO A / MAO B” value is recorded as above 1700 and the IC50 came to 6.9 nM.

As for `Cc1c(C)c2ccc(OCc3cc(C4CCCCC4)no3)cc2oc1=O` [Example 87, 7-(3-Cyclohexylisoxazol-5-yl)-methoxy-3,4-dimethylcoumarin], the IC50 against MAO A is above 10000 nM. For the same compound, at MAO B, the “IC50 ratio MAO A / MAO B” value is reported as above 700 and half-maximal inhibition (IC50) required 14 nM.

`Cc1c(C)c2ccc(OCc3ccc(C(C)(C)C)s3)cc2oc1=O` [Example 92, 7-(2-tert-Butylthiophen-5-yl)-methoxy-3,4-dimethylcoumarin]: the IC50 against MAO A is above 10000 nM; against MAO B, around 10 nM. Also, the “IC50 ratio MAO A / MAO B” value at MAO B is above 1000.

In turn, `Cc1c(C)c2ccc(OCc3nnc(C4CC4)s3)cc2oc1=O` [Example 94, 3,4-Dimethyl-7-(2-cyclopropyl-1,3,4-thiadiazol-5yl)-methoxycoumarin] displayed an IC50 on MAO A of around 10000 nM. Further, on MAO B, the “IC50 ratio MAO A / MAO B” value was ~ 8300 and the IC50 amounted to 1.2 nM.

As for `Cc1c(C)c2ccc(OCc3cc(C4(C)CC4)no3)cc2oc1=O` [Example 96], the IC50 on MAO A was around 20000 nM; on MAO B, 0.61 nM. In addition, the “IC50 ratio MAO A / MAO B” value on MAO B is ~ 32000.

With `Cc1c(C)c2ccc(OCc3cc(C4CCOC4)no3)cc2oc1=O` (stereo not shown) [Example 97, 3,4-Dimethyl-7-[3-(tetrahydrofuran-3-yl)-isoxazol-5-yl]-methoxycoumarin], the IC50 at MAO A is around 5000 nM; at MAO B, 3.6 nM. Further, the “IC50 ratio MAO A / MAO B” value at MAO B is on record as ~ 1400.

In turn, `Cc1c(C)c2ccc(OCc3nc(C4CCCC4)no3)cc2oc1=O` [Example 98] returned an IC50 at MAO A above 10000 nM. At MAO B, the “IC50 ratio MAO A / MAO B” value was above 11000 and 0.92 nM corresponded to half-maximal inhibition (IC50).

For the compound `Cc1c(C)c2ccc(OCc3cc(C4CCCCC4)no3)cc2oc1=O` [Example 99, 3,4-Dimethyl-7-(3-cyclohexylisoxazol-5-yl)-methoxycoumarin], the IC50 at MAO A was above 10000 nM; at MAO B it was 8.2 nM. Moreover, on MAO B, the “IC50 ratio MAO A / MAO B” value is on record as above 1200.

As to `Cc1c(C)c2cc(Cl)c(OCc3ccccn3)cc2oc1=O` [Example 100, 6-Chloro-3,4-dimethyl-7-(2-pyridinyl)-methoxycoumarin], the concentration for half-maximal inhibition (IC50) against MAO A was above 10000 nM. In addition, on MAO B, the “IC50 ratio MAO A / MAO B” value is given as above 13000 and the IC50 was determined as 0.74 nM.

For `Cc1nnc(COc2cc3oc(=O)c(Cl)c(C)c3cc2Cl)s1` [Example 101, 3,6-Dichloro-4-methyl-7-(5-methyl-1,3,4-thiadiazol-2-yl)-methoxycoumarin], the IC50 is above 10000 nM against MAO A and 1 nM at MAO B. Moreover, the “IC50 ratio MAO A / MAO B” value at MAO B was above 10000.

In the case of `Cc1c(Cl)c(=O)oc2cc(OCc3csc(C(C)C)n3)c(Cl)cc12` [Example 103, 3,6-Dichloro-4-methyl-7-(2-isopropylthiazol-4-yl)-methoxycoumarin], the IC50 against MAO A was above 10000 nM; on MAO B, 1.8 nM. Besides, the “IC50 ratio MAO A / MAO B” value at MAO B was above 5500.

One may read the IC50 as the concentration at which inhibition is half-maximal. High values mean weaker potency in that assay, low ones greater potency in that assay.
